Active and inactive are the calls of the source. The rule behind the calls is not given here.
Tests used:
Mus musculus [1] = test: Anticonvulsant activity in albino CF1 mouse assessed as metrazol dose causing first clonus at 180 mg/kg, ip administered 0.5 hrs prior to MTZ challenge (reference value: 28.4 +/- 1.1 mg/kg); assay type: functional
Mus musculus [2] = test: Anticonvulsant activity in albino CF1 mouse assessed as metrazol dose causing first clonus at 56 mg/kg, ip administered 0.5 hrs prior to MTZ challenge (reference value: 28.4 +/- 1.1 mg/kg); assay type: functional
Mus musculus [3] = test: Anticonvulsant activity in albino CF1 mouse model of metrazol-induced seizures assessed as metrazol dose causing first twitch at 180 mg/kg, ip administered 0.5 hrs prior to MTZ challenge (reference value: 25.6 +/- 0.9 mg/kg); assay type: functional
Mus musculus [4] = test: Anticonvulsant activity in albino CF1 mouse model of metrazol-induced seizures assessed as metrazol dose causing first twitch at 56 mg/kg, ip administered 0.5 hrs prior to MTZ challenge (reference value: 25.6 +/- 0.9 mg/kg); assay type: functional
Mus musculus [5] = test: Anticonvulsant activity in albino CF1 mouse assessed as time to clonus at 180 mg/kg, ip administered 0.5 hrs prior to MTZ challenge (reference value: 29.3 +/- 1.2 s); assay type: functional
Mus musculus [6] = test: Anticonvulsant activity in albino CF1 mouse assessed as time to clonus at 56 mg/kg, ip administered 0.5 hrs prior to MTZ challenge (reference value: 29.3 +/- 1.2 s); assay type: functional
Mus musculus [7] = test: Anticonvulsant activity in albino CF1 mouse model of metrazol-induced seizures assessed as time to twitch at 180 mg/kg, ip administered 0.5 hrs prior to MTZ challenge (reference value: 26.5 +/- 1.0 s); assay type: functional
Mus musculus [8] = test: Anticonvulsant activity in albino CF1 mouse model of metrazol-induced seizures assessed as time to twitch at 56 mg/kg, ip administered 0.5 hrs prior to MTZ challenge (reference value: 26.5 +/- 1.0 s); assay type: functional
[9] = Toxicity in albino CF1 mouse assessed as body weight at 56 mg/kg, ip measured at 0.5 hrs (reference value: 29.3 +/- 0.3 g); assay type: organism-based; conditions: in vivo
[10] = Toxicity in albino CF1 mouse assessed as body weight at 180 mg/kg, ip measured at 0.5 hrs (reference value: 29.3 +/- 0.3 g); assay type: organism-based; conditions: in vivo
Mus musculus [11] = test: Anticonvulsant activity in ip dosed 60-Hz corneal stimulation-induced full kindling albino CF1 mouse model of epilepsy assessed as reduction in seizure score treated 0.25 hrs prior to 60-Hz corneal stimulation; assay type: functional
Mus musculus [12] = test: Anticonvulsant activity in 60-Hz corneal stimulation-induced full kindling albino CF1 mouse model of epilepsy assessed as reduction in seizure score at 15 mg/kg, ip administered 0.25 hrs prior to 60-Hz corneal stimulation; assay type: functional, organism-based
Mus musculus [13] = test: Anticonvulsant activity in 60-Hz corneal stimulation-induced full kindling albino CF1 mouse model of epilepsy assessed as reduction in seizure score at 25 mg/kg, ip administered 0.25 hrs prior to 60-Hz corneal stimulation; assay type: functional, organism-based
Mus musculus [14] = test: Anticonvulsant activity in 60-Hz corneal stimulation-induced full kindling albino CF1 mouse model of epilepsy assessed as reduction in seizure score at 42 mg/kg, ip administered 0.25 hrs prior to 60-Hz corneal stimulation; assay type: functional, organism-based
Mus musculus [15] = test: Anticonvulsant activity in 60-Hz corneal stimulation-induced full kindling albino CF1 mouse model of epilepsy assessed as reduction in seizure score at 70 mg/kg, ip administered 0.25 hrs prior to 60-Hz corneal stimulation; assay type: functional, organism-based
Mus musculus [16] = test: Neuroprotective activity against controlled cortical impact-induced C57Bl/6 acute mouse model of traumatic brain injury assessed as lesion volume at 54 mg/kg, ip administered twice daily for 3 days starting from 0.5 hrs post controlled cortical impact challenge measured post-last dose by naurotrace 435/455 staining-based fluorescent microscopy (reference value: 11.9 +/- 0.7 mm3); assay type: functional
Brain [17] = test: (§1) In vitro anticonvulsant activity in kainic acid-induced albino Sprague Dawley rat brain assessed as blockade of ACSF-stimulated spontaneous electrographic seizure-like activity in medial entorhinal cortex hippocampal brain slices by measuring burst duration at 100 uM measured after 20 mins relative to control; assay type: functional
Mus musculus [18] = test: Anticonvulsant activity in albino CF1 mouse assessed as metrazol dose causing first clonus at 196 mg/kg, ip administered 0.25 hrs prior to MTZ challenge (reference value: 30.9 +/- 1.6 mg/kg); assay type: functional
Mus musculus [19] = test: Anticonvulsant activity in albino CF1 mouse assessed as metrazol dose causing first clonus at 54 mg/kg, ip administered 0.25 hrs prior to MTZ challenge (reference value: 30.9 +/- 1.6 mg/kg); assay type: functional
Mus musculus [20] = test: Anticonvulsant activity in albino CF1 mouse model of metrazol-induced seizures assessed as metrazol dose causing first twitch at 196 mg/kg, ip administered 0.25 hrs prior to MTZ challenge (reference value: 27.6 +/- 1.3 mg/kg); assay type: functional
Mus musculus [21] = test: Anticonvulsant activity in albino CF1 mouse model of metrazol-induced seizures assessed as metrazol dose causing first twitch at 54 mg/kg, ip administered 0.25 hrs prior to MTZ challenge (reference value: 27.6 +/- 1.3 mg/kg); assay type: functional
Mus musculus [22] = test: Anticonvulsant activity in albino CF1 mouse assessed as time to clonus at 196 mg/kg, ip administered 0.25 hrs prior to MTZ challenge (reference value: 29 +/- 1.6 s); assay type: functional
Mus musculus [23] = test: Anticonvulsant activity in albino CF1 mouse assessed as time to clonus at 54 mg/kg, ip administered 0.25 hrs prior to MTZ challenge (reference value: 29 +/- 1.6 s); assay type: functional
Mus musculus [24] = test: Anticonvulsant activity in albino CF1 mouse model of metrazol-induced seizures assessed as time to twitch at 54 mg/kg, ip administered 0.25 hrs prior to MTZ challenge (reference value: 25.9 +/- 1.3 s); assay type: functional
Mus musculus [25] = test: Anticonvulsant activity in albino CF1 mouse model of metrazol-induced seizures assessed as time to twitch at 196 mg/kg, ip administered 0.25 hrs prior to MTZ challenge (reference value: 25.9 +/- 1.3 s); assay type: functional
[26] = Toxicity in albino CF1 mouse assessed as body weight at 54 mg/kg, ip measured at 0.25 hrs (reference value: 26.5 +/- 0.3 g); assay type: organism-based; conditions: in vivo
[27] = Toxicity in albino CF1 mouse assessed as body weight at 196 mg/kg, ip measured at 0.25 hrs (reference value: 26.5 +/- 0.3 g); assay type: organism-based; conditions: in vivo
Mus musculus [28] = test: Anticonvulsant activity in 60-Hz corneal stimulation-induced full kindling albino CF1 mouse model of epilepsy assessed as reduction in seizure score at 94 mg/kg, ip administered 0.25 hrs prior to 60-Hz corneal stimulation; assay type: functional, organism-based
Brain [29] = test: as §1, with “rate” for “duration”; assay type: functional

CC(O)CNC(=O)/C=C/c1ccc(Cl)cc1 (racemic)
Activity (Mus musculus [1]): 105.4 mg/kg | Activity (Mus musculus [2]): 65.4 mg/kg | Activity (Mus musculus [3]): 60.3 mg/kg | Activity (Mus musculus [4]): 45 mg/kg | Time (Mus musculus [5]): 106.1 s | Time (Mus musculus [6]): 65.6 s | Time (Mus musculus [7]): 60.8 s | Time (Mus musculus [8]): 45.1 s | Activity [9]: 28.4 g | Activity [10]: 28.6 g | ED50 (Mus musculus [11]): 51.1 mg/kg | Activity (Mus musculus [12]): inactive | Activity (Mus musculus [13]): inactive | Activity (Mus musculus [14]): inactive | Activity (Mus musculus [15]): Active

CCC(CO)NC(=O)/C=C/c1ccc(Cl)cc1 (racemic)
Activity (Mus musculus [16]): 11.44 mm3 | Activity (Brain [17]): 90% | Activity (Mus musculus [18]): 98.6 mg/kg | Activity (Mus musculus [19]): 44.9 mg/kg | Activity (Mus musculus [20]): 68.7 mg/kg | Activity (Mus musculus [21]): 36.2 mg/kg | Time (Mus musculus [22]): 90.2 s | Time (Mus musculus [23]): 42.1 s | Time (Mus musculus [24]): 33.9 s | Time (Mus musculus [25]): 63 s | Activity [26]: 26.5 g | Activity [27]: 26 g | ED50 (Mus musculus [11]): 25.7 mg/kg | Activity (Mus musculus [28]): Active | Activity (Brain [29]): 87%

— ChEMBL document CHEMBL4387714, “Four N-(E)-cinnamoyl (cinnamamide) derivatives of aminoalkanols with promising anticonvulsant and analgesic activity” (Bioorg Med Chem Lett, 2019)
